# Reference: patent US6737383B1, “Herbicidal oxadiazolidines” (priority 1999, dated 2004)
# Columns and labels:
# blackgrass = experiment: Test B pre/postemergence blackgrass; format: in vivo, Alopecurus myosuroides
# Text: (§1) Seeds of bedstraw (Galium aparine), blackgrass (Alopecurus myosuroides), surinam grass (Brachiaria decumbens), cocklebur (Xanthium strumarium), corn (Zea mays), crabgrass (Digitaria sanguinalis), giant foxtail (Setaria faberii), morningglory (Ipomoea hederacea), pigweed (Amaranthus retroflexus), rape (Brassica napus), soybean (Glycine max), sugar beet (Beta vulgaris), velvetleaf (Abutilon theophrasti), wheat (Triticum aestivum), wild oat (Avena fatua) and purple nutsedge (Cyperus rotundus) tubers were planted and treated preemnergence with test chemicals formulated in a non-phytotoxic solvent mixture which included a surfactant.
# (§2) At the same time, these crop and weed species were also treated with postemergence applications of test chemicals formulated in the same manner. Plants ranged in height from 2 to 18 cm (1- to 4-leaf stage) for postemergence treatments. Plant species in the flood test consisted of rice (Oryza sativa), smallflower flatsedge (Cyperus difformis), duck salad (Heteranthera limosa) and bamyardgrass (Echinochloa crus-galli) grown to the 2-leaf stage for testing. Treated plants and controls were maintained in a greenhouse for twelve to sixteen days, after which all species were compared to controls and visually evaluated. Plant response ratings, summarized in Table B, are based on a scale of 0 to 10 where 0 is no effect and 10 is complete control. A dash (−) response means no test result.
# bedstraw = experiment: Test B pre/postemergence bedstraw; format: in vivo, Galium aparine
# Text: as §1, §2
# giant foxtail = experiment: Test B pre/postemergence giant foxtail; format: in vivo, Setaria faberii
# Text: as §1, §2
# pigweed = experiment: Test B pre/postemergence pigweed; format: in vivo, Amaranthus retroflexus
# Text: as §1, §2
# crabgrass = experiment: Test B pre/postemergence crabgrass; format: in vivo, Digitaria sanguinalis
# Text: as §1, §2
# rape = experiment: Test B pre/postemergence rape; format: in vivo, Brassica napus
# Text: as §1, §2
# sugar beet = experiment: Test B pre/postemergence sugar beet; format: in vivo, Beta vulgaris
# Text: as §1, §2
# cocklebur = experiment: Test B pre/postemergence cocklebur; format: in vivo, Xanthium strumarium
# Text: as §1, §2
# morningglory = experiment: Test B pre/postemergence morningglory; format: in vivo, Ipomoea hederacea
# Text: as §1, §2
# surinam grass = experiment: Test B pre/postemergence surinam grass; format: in vivo, Brachiaria decumbens
# Text: as §1, §2
# wheat = experiment: Test B pre/postemergence wheat; format: in vivo, Triticum aestivum
# Text: as §1, §2
# purple nutsedge = experiment: Test B pre/postemergence purple nutsedge; format: in vivo, Cyperus rotundus
# Text: as §1, §2
# soybean = experiment: Test B pre/postemergence soybean; format: in vivo, Glycine max
# Text: as §1, §2
# corn = experiment: Test B pre/postemergence corn; format: in vivo, Zea mays
# Text: as §1, §2
# velvetleaf = experiment: Test B pre/postemergence velvetleaf; format: in vivo, Abutilon theophrasti
# Text: as §1, §2
# wild oat = experiment: Test B pre/postemergence wild oat; format: in vivo, Avena fatua
# Text: as §1, §2
# [1] = Postemergence, Rate 62 g/ha, scale 0 to 10, 0 is no effect, 10 is complete control
# [2] = Postemergence, Rate 125 g/ha, scale of 0 to 10 where 0 is no effect and 10 is complete control
# [3] = Preemergence, Rate 62 g/ha, scale of 0 to 10 where 0 is no effect and 10 is complete control
# [4] = Preemergence, Rate 125 g/ha, scale of 0 to 10 where 0 is no effect and 10 is complete control
# [5] = Preemergence, Rate 250 g/ha, scale 0 (no effect) to 10 (complete control)
# [6] = Preemergence, Rate 500 g/ha, scale of 0 to 10 where 0 is no effect and 10 is complete control
# [7] = Rate 250 g/ha, Postemergence, scale 0 to 10, 0 is no effect, 10 is complete control
# [8] = Rate 500 g/ha, Postemergence, scale 0 to 10, 0 is no effect, 10 is complete control
smiles,measurement,setting,value
CC(=O)OCC(CCl)n1c(=O)on(C(=O)N(c2ccc(F)cc2F)C(C)C)c1=O (racemic) [Compound 708],"Plant response rating, Blackgrass",blackgrass; [1],0
same,Blackgrass plant response rating,blackgrass; [2],0
same,Blackgrass plant response rating,blackgrass; [3],0
same,"Plant response rating, Blackgrass",blackgrass; [4],2
same,Blackgrass plant response rating,blackgrass; [5],3
same,"Plant response rating, Blackgrass",blackgrass; [6],5
same,Blackgrass plant response rating,blackgrass; [7],2
same,Blackgrass plant response rating,blackgrass; [8],2
same,"Plant response rating, Bedstraw",bedstraw; [1],0
same,Bedstraw plant response rating,bedstraw; [2],0
same,Bedstraw plant response rating,bedstraw; [3],0
same,"Plant response rating, Bedstraw",bedstraw; [4],0
same,Bedstraw plant response rating,bedstraw; [5],0
same,"Plant response rating, Bedstraw",bedstraw; [6],0
same,"Plant response rating, Giant foxtail",giant foxtail; [1],0
same,Giant foxtail plant response rating,giant foxtail; [2],2
same,Giant foxtail plant response rating,giant foxtail; [3],5
same,"Plant response rating, Giant foxtail",giant foxtail; [4],7
same,Giant foxtail plant response rating,giant foxtail; [5],8
same,Giant foxtail plant response rating,giant foxtail; [7],4
same,Giant foxtail plant response rating,giant foxtail; [8],5
same,"Plant response rating, Redroot pigweed",pigweed; [1],0
same,Redroot pigweed plant response rating,pigweed; [2],0
same,Redroot pigweed plant response rating,pigweed; [3],0
same,"Plant response rating, Redroot pigweed",pigweed; [4],3
same,Redroot pigweed plant response rating,pigweed; [7],0
same,Redroot pigweed plant response rating,pigweed; [8],5
same,"Plant response rating, Crabgrass",crabgrass; [1],0
same,Crabgrass plant response rating,crabgrass; [2],0
same,Crabgrass plant response rating,crabgrass; [3],6
same,"Plant response rating, Crabgrass",crabgrass; [4],7
same,Crabgrass plant response rating,crabgrass; [5],10
same,Crabgrass plant response rating,crabgrass; [7],0
same,Crabgrass plant response rating,crabgrass; [8],4
same,"Plant response rating, Rape",rape; [1],0
same,Rape plant response rating,rape; [2],0
same,Rape plant response rating,rape; [3],0
same,"Plant response rating, Rape",rape; [4],0
same,Rape plant response rating,rape; [5],0
same,Rape plant response rating,rape; [7],0
same,Rape plant response rating,rape; [8],0
same,"Plant response rating, Sugarbeets",sugar beet; [1],0
same,Sugarbeets plant response rating,sugar beet; [2],0
same,Sugarbeets plant response rating,sugar beet; [3],0
same,"Plant response rating, Sugarbeets",sugar beet; [4],0
same,Sugarbeets plant response rating,sugar beet; [5],0
same,Sugarbeets plant response rating,sugar beet; [7],0
same,Sugarbeets plant response rating,sugar beet; [8],0
same,"Plant response rating, Cocklebur",cocklebur; [1],0
same,Cocklebur plant response rating,cocklebur; [2],0
same,Cocklebur plant response rating,cocklebur; [3],0
same,"Plant response rating, Cocklebur",cocklebur; [4],0
same,Cocklebur plant response rating,cocklebur; [5],0
same,"Plant response rating, Cocklebur",cocklebur; [6],0
same,Cocklebur plant response rating,cocklebur; [7],0
same,Cocklebur plant response rating,cocklebur; [8],0
same,"Plant response rating, Morningglory",morningglory; [1],0
same,Morningglory plant response rating,morningglory; [2],2
same,Morningglory plant response rating,morningglory; [3],0
same,"Plant response rating, Morningglory",morningglory; [4],0
same,Morningglory plant response rating,morningglory; [5],0
same,Morningglory plant response rating,morningglory; [7],2
same,Morningglory plant response rating,morningglory; [8],5
same,"Plant response rating, B. signalgrass",surinam grass; [1],0
same,B. signalgrass plant response rating,surinam grass; [2],0
same,B. signalgrass plant response rating,surinam grass; [3],0
same,"Plant response rating, B. signalgrass",surinam grass; [4],0
same,B. signalgrass plant response rating,surinam grass; [5],0
same,"Plant response rating, B. signalgrass",surinam grass; [6],0
same,B. signalgrass plant response rating,surinam grass; [7],0
same,B. signalgrass plant response rating,surinam grass; [8],2
same,"Plant response rating, Wheat",wheat; [1],0
same,Wheat plant response rating,wheat; [2],0
same,Wheat plant response rating,wheat; [3],0
same,"Plant response rating, Wheat",wheat; [4],0
same,Wheat plant response rating,wheat; [5],0
same,Wheat plant response rating,wheat; [7],0
same,Wheat plant response rating,wheat; [8],0
same,"Plant response rating, Nutsedge",purple nutsedge; [1],0
same,Nutsedge plant response rating,purple nutsedge; [2],0
same,"Plant response rating, Nutsedge",purple nutsedge; [4],0
same,Nutsedge plant response rating,purple nutsedge; [5],0
same,Nutsedge plant response rating,purple nutsedge; [7],0
same,Nutsedge plant response rating,purple nutsedge; [8],0
same,"Plant response rating, Soybean",soybean; [1],3
same,Soybean plant response rating,soybean; [2],4
same,Soybean plant response rating,soybean; [3],0
same,"Plant response rating, Soybean",soybean; [4],0
same,Soybean plant response rating,soybean; [5],0
same,Soybean plant response rating,soybean; [7],4
same,Soybean plant response rating,soybean; [8],4
same,"Plant response rating, Corn",corn; [1],0
same,Corn plant response rating,corn; [2],0
same,Corn plant response rating,corn; [3],0
same,"Plant response rating, Corn",corn; [4],0
same,Corn plant response rating,corn; [5],0
same,Corn plant response rating,corn; [7],0
same,Corn plant response rating,corn; [8],0
same,"Plant response rating, Velvetleaf",velvetleaf; [1],0
same,Velvetleaf plant response rating,velvetleaf; [2],0
same,Velvetleaf plant response rating,velvetleaf; [3],0
same,"Plant response rating, Velvetleaf",velvetleaf; [4],0
same,Velvetleaf plant response rating,velvetleaf; [5],2
same,Velvetleaf plant response rating,velvetleaf; [7],3
same,Velvetleaf plant response rating,velvetleaf; [8],5
same,"Plant response rating, Wild oats",wild oat; [1],0
same,Wild oats plant response rating,wild oat; [2],0
same,Wild oats plant response rating,wild oat; [3],0
same,"Plant response rating, Wild oats",wild oat; [4],0
same,Wild oats plant response rating,wild oat; [5],0
same,Wild oats plant response rating,wild oat; [7],0
same,Wild oats plant response rating,wild oat; [8],0
